Data published in the supplement of paper PMC10307832.

What was measured:
Experiment in all cases: relative viability (nuclei count vs DMSO), 5 days (fraction); higher = more cells survive
[1] = compound: Cc1ccc2nc(NCCN)c3ncc(C)n3c2c1 + CC(C)C[C@H](NC(=O)[C@H](Cc1ccccc1)NC(=O)c1cnccn1)B(O)O [Bortezomib] (partner 0.002 µM)
Summary of the method: (§1)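 Lung cancer cell lines in 1536-well plates got either a single drug or a fixed anchor-drug dose together with five library-drug doses (not always all listed) in √10 steps, by pin tool, on the day after seeding. Nuclei were counted after 5 days, and relative viability is the treated-to-vehicle ratio of nuclei counts. Values are medians of duplicate plates.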

[2] = compound: Cc1ccc2nc(NCCN)c3ncc(C)n3c2c1 + Cc1cc(Nc2cc(N3CCN(C)CC3)nc(Sc3ccc(NC(=O)C4CC4)cc3)n2)n[nH]1 [Tozasertib] (partner 0.1 µM)
Summary of the method: as §1

[3] = compound: Cc1ccc2nc(NCCN)c3ncc(C)n3c2c1 + O=C(c1cc(Cc2n[nH]c(=O)c3ccccc23)ccc1F)N1CCN(C(=O)C2CC2)CC1 [Olaparib] (partner 8 µM)
Summary of the method: as §1

[4] = compound: Cc1ccc2nc(NCCN)c3ncc(C)n3c2c1 + CS(=O)(=O)CCNCc1ccc(-c2ccc3ncnc(Nc4ccc(OCc5cccc(F)c5)c(Cl)c4)c3c2)o1 [Lapatinib] (partner 2 µM)
Summary of the method: as §1

| Cell Line | relative viability ([1]; first compound 0.04 µM) | relative viability ([1]; first compound 0.1265 µM) | relative viability ([1]; first compound 0.4 µM) | relative viability ([1]; first compound 1.265 µM) | relative viability ([1]; first compound 4 µM) | relative viability ([2]; first compound 0.04 µM) | relative viability ([2]; first compound 0.1265 µM) | relative viability ([2]; first compound 0.4 µM) | relative viability ([2]; first compound 1.265 µM) | relative viability ([2]; first compound 4 µM) | relative viability ([3]; first compound 0.04 µM) | relative viability ([3]; first compound 0.1265 µM) | relative viability ([3]; first compound 0.4 µM) | relative viability ([3]; first compound 1.265 µM) | relative viability ([3]; first compound 4 µM) | relative viability ([4]; first compound 0.04 µM) | relative viability ([4]; first compound 0.1265 µM) | relative viability ([4]; first compound 0.4 µM) | relative viability ([4]; first compound 1.265 µM) | relative viability ([4]; first compound 4 µM) |
| --- | --- | --- | --- | --- | --- | --- | --- | --- | --- | --- | --- | --- | --- | --- | --- | --- | --- | --- | --- | --- |
| NCI-H1651 | 0.966 | 0.954 | 1.07 | 0.972 | 0.676 | 0.625 | 0.71 | 0.652 | 0.677 | 0.718 | 0.178 | 0.181 | 0.179 | 0.18 | 0.175 | 0.853 | 0.879 | 0.841 | 0.894 | 0.737 |
| LCLC-97TM1 | 0.846 | 0.614 | 0.767 | 0.937 | 0.585 | 0.201 | 0.215 | 0.177 | 0.218 | 0.187 | 0.491 | 0.428 | 0.462 | 0.417 | 0.338 | 1.06 | 1.42 | 0.78 | 1.33 | 1 |
| NCI-H727 | 0.822 | 0.806 | 0.683 | 0.732 | 0.639 | 0.599 | 0.688 | 0.704 | 0.578 | 0.641 | 0.561 | – | 0.731 | 0.785 | 0.709 | 1.22 | 0.887 | 1.19 | 0.766 | 0.762 |
| NCI-H1355 | 1.25 | 1.19 | 1.02 | 1.14 | 1.06 | 0.565 | 0.517 | 0.611 | 0.546 | 0.553 | 0.79 | 0.72 | 0.754 | 0.764 | 0.659 | 1.02 | 0.981 | 0.962 | 0.952 | 0.988 |
| HOP-62 | 1.02 | 0.692 | 0.613 | 0.86 | 0.432 | 0.383 | 0.379 | 0.396 | 0.367 | 0.402 | 0.286 | 0.457 | 0.436 | 0.417 | 0.42 | 1.13 | 0.845 | 0.688 | 0.81 | 1.02 |
| NCI-H2085 | 1.13 | 1.02 | 1.04 | 1.05 | 1.03 | 0.801 | 0.765 | 0.881 | 0.703 | 0.802 | 0.813 | 0.752 | 0.836 | 0.803 | 0.791 | 0.91 | 0.771 | 0.728 | 0.785 | 0.817 |
